# Source: EP0973746B1, “SUBSTITUTED 3-CYANO QUINOLINES” (Wyeth Holdings Corporation, priority 1997, dated 1998)
# Experiments:
# [1] = system: A431; test: Inhibition of cell growth by incorporation of [3H]-thymidine, A431; format: cell-based, human; details: Homo sapiens, A-431, read-out: IC50 A431
# [2] = system: HTB161; test: Inhibition of cancer cell growth as measured by cell number, HTB161; format: cell-based; details: Homo sapiens, 48 h, read-out: IC50 HTB161
# [3] = system: A27805; test: Inhibition of cancer cell growth as measured by cell number, A27805; format: cell-based; details: Homo sapiens, 48 h, read-out: IC50 A27805
# [4] = system: A2780DDP; test: Inhibition of cancer cell growth as measured by cell number, A2780DDP; format: cell-based; details: Homo sapiens, 48 h, read-out: IC50 A2780DDP
# [5] = system: MIP; test: Inhibition of cancer cell growth as measured by cell number, MIP; format: cell-based; details: Homo sapiens; cell number, Sulforhodamine B, 48 hours exposure; Table 4; read-out: IC50 MIP
# [6] = system: SW620; test: Inhibition of cancer cell growth as measured by cell number, SW620; format: cell-based, human; details: Homo sapiens, SW-620, 48 h, read-out: IC50 SW620, cell number, Sulforhodamine B, 48 hours exposure; Table 4;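 note: SW620 was included as a cell line with little or no EGFR or HER2/neu expression, in contrast to receptor-overexpressing lines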
# Text: (§1) The cell lines were chosen since they overexpressed epidermal growth factor receptor (EGFR) (i.e. A431) or HER2/neu (SKBR3), or had little to no expression of the these receptors (SW620, LOX, MCF7).
# [7] = system: COLO205; test: Inhibition of cancer cell growth as measured by cell number, COLO205; format: cell-based; details: Homo sapiens, COLO 205, 48 h, read-out: IC50 COLO205
# [8] = system: CX1; test: Inhibition of cancer cell growth as measured by cell number, CX1; format: cell-based; details: Homo sapiens, CX-1, 48 h, read-out: IC50 CX1
# [9] = system: CACO2; test: Inhibition of cancer cell growth as measured by cell number, CACO2; format: cell-based; details: Homo sapiens, Caco-2, 48 h, read-out: IC50 CACO2
# [10] = system: HCT15; test: Inhibition of cancer cell growth as measured by cell number, HCT15; format: cell-based; details: Homo sapiens, HCT-15, 48 h, read-out: IC50 HCT15
# [11] = system: LS174T; test: Inhibition of cancer cell growth as measured by cell number, LS174T; format: cell-based; details: Homo sapiens, 48 h, read-out: IC50 LS174T
# [12] = system: SW948; test: Inhibition of cancer cell growth as measured by cell number, SW948; format: cell-based; details: Homo sapiens, SW948, 48 h, read-out: IC50 SW948
# [13] = system: CCL228; test: Inhibition of cancer cell growth as measured by cell number, CCL228; format: cell-based; details: Homo sapiens, 48 h, read-out: IC50 CCL228
# [14] = system: MCF7; test: Inhibition of cancer cell growth as measured by cell number, MCF7; format: cell-based, human; details: Homo sapiens, MCF7, 48 h, read-out: IC50 MCF7, cell number, Sulforhodamine B, 48 hours exposure; Table 5;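 note: MCF7 was included as a line with little or no EGFR or HER2/neu expression, in contrast to the receptor-overexpressing lines of the panel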
# Text: as §1
# [15] = system: B7474; test: Inhibition of cancer cell growth as measured by cell number, B7474; format: cell-based; details: Homo sapiens, 48 h, read-out: IC50 B7474
# [16] = system: T47D; test: Inhibition of cancer cell growth as measured by cell number, T47D; format: cell-based; details: Homo sapiens, 48 h, read-out: IC50 T47D
# [17] = system: LX1; test: Inhibition of cancer cell growth as measured by cell number, LX1; format: cell-based; details: Homo sapiens, LX-1, 48 h, read-out: IC50 LX1
# [18] = system: A549; test: Inhibition of cancer cell growth as measured by cell number, A549; format: cell-based; details: Homo sapiens, A549, 48 h, read-out: IC50 A549
# [19] = system: LOX; test: Inhibition of cancer cell growth as measured by cell number, LOX; format: cell-based, human; details: Homo sapiens, LOX, 48 h, read-out: IC50 LOX, cell number, Sulforhodamine B, 48 hours exposure; Table 6;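 note: LOX cells served as a line with low or absent EGFR and HER2/neu expression, in contrast to receptor-overexpressing lines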
# Text: as §1
# [20] = system: A431; test: Inhibition of cancer cell growth as measured by cell number, A431; format: cell-based, human; details: Homo sapiens, A-431, 48 h, read-out: IC50 A431, cell number, Sulforhodamine B, 48 hours exposure; Table 6;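 note: human A431 line, picked because it overexpresses epidermal growth factor receptor (EGFR)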
# Text: as §1
# [21] = system: NEC; test: Inhibition of cancer cell growth as measured by cell number, NEC; format: cell-based; details: Homo sapiens, 48 h, read-out: IC50 NEC
# [22] = system: DU145; test: Inhibition of cancer cell growth as measured by cell number, DU145; format: cell-based; details: Homo sapiens, DU-145, 48 h, read-out: IC50 DU145
# [23] = system: PC3; test: Inhibition of cancer cell growth as measured by cell number, PC3; format: cell-based; details: Homo sapiens, PC-3, 48 h, read-out: IC50 PC3
# [24] = system: LNCAP; test: Inhibition of cancer cell growth as measured by cell number, LNCAP; format: cell-based; details: Homo sapiens, 48 h, read-out: IC50 LNCAP
# [25] = system: HL60; test: Inhibition of cancer cell growth as measured by cell number, HL60; format: cell-based; details: Homo sapiens, HL-60, 48 h, read-out: IC50 HL60
# [26] = system: CCRF-CFM; test: Inhibition of cancer cell growth as measured by cell number, CCRF-CFM; format: cell-based; details: Homo sapiens, 48 h, read-out: IC50 CCRF-CFM
# [27] = system: SKBR3; test: Inhibition of cancer cell growth as measured by cell number, SKBR3; format: cell-based, human; details: Homo sapiens, SK-BR-3, 48 h, read-out: IC50 SKBR3, cell number, Sulforhodamine B, 48 hours exposure; Table 7;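 note: SK-BR-3 cells were selected as a line overexpressing HER2/neu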
# Text: as §1
# [28] = biological target: recombinant human MEK 1 (MAPKK) and recombinant human ERK2 (MAPK); test: Mitogen Activated Protein Kinase (MAPK) assay, two component coupled MEK 1 / ERK2; format: biochemical; details: separate entries for the same compound = evaluated more than one time;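 note: MEK 1-activated ERK2 phosphorylates MBP or Myc peptide with 33P-ATP, filter capture and scintillation counting, inhibitor preincubated with ERK2 30 min at 0 °C, inhibition relative to uninhibited control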
# Experimental: To evaluate inhibitors of the MAP (mitogen activated protein) kinase a two component coupled standard pharmacological test procedure, which measures phosphorylation of a serine/threonine residue in an appropriate sequence in the substrate in the presence and absence of a putative inhibitor, was used. Recombinant human MEK 1 (MAPKK) was first used to activate recombinant human ERK2 (MAPK) and the activated MAPK (ERK) was incubated with substrate (MBP peptide or MYC peptide) in the presence of ATP, Mg^+2 and radiolabeled ^33P ATP. The phosphorylated peptide was captured on a P 81 phosphocellulose filter (paper filter or embedded in microtiter plate) washed and counted by scintillation methods.
# The peptide substrates used in the assay are MBP, peptide substrate ([sequence]), or synthetic Myc substrate, ([sequence]•5 TFA. The recombinant enzymes used were prepared as GST fusion proteins of human ERK 2 and human MEK 1. Inhibitor samples were prepared as 10X stocks in 10% DMSO and an appropriate aliquot was used to deliver either 10 ug/ml for a single point screening dose or 100, 10, 1, and 0.1 uM final concentration for a dose response curve. Final DMSO concentrations were less than or equal to 1%.
# The reaction was run as follows in 50 mM Tris kinase buffer, pH 7.4 in a reaction volume of 50 ul. The appropriate volume of kinase buffer and inhibitor sample was added to the tube. Appropriate dilution of enzyme was delivered to give 2-5 ug recombinant MAPK (Erk ) per tube. The inhibitor was incubated with MAPK (Erk) for 30 min at 0 deg. […] Recombinant Mek (MAPKK) ( 0.5-2.5 ug) or fully activated Mek (0.05-0.1 units) was added to activate the Erk and incubated for 30 min at 30° C. […] Samples were incubated at 30°C for 30 minutes and the reaction was stopped by adding 25 µl of ice cold 10 %TCA .After samples were chilled on ice for 30 min, 20 µl of sample was transferred onto P 81 phosphocellulose filter paper or appropriate MTP with embedded P 81 filter. Filter papers or MTP were washed 2 times with a large volume of 1% acetic acid, then 2 times with water. The filters or MTP were briefly air dried before addition of scintillant and samples were counted in the appropriate scintillation counter set up for reading ^33P isotope.
# The raw data was captured as cpm. Sample replicates were averaged and corrected for background count. Mean cpm data was tabulated by group and % inhibition by a test compound was calculated as (corrected cpm control- corrected. cpm sample/control) X 100 = % inhibition.
Compound,IC50 [1] [µM],IC50 [2] [µg/mL],IC50 [3] [µg/mL],IC50 [4] [µg/mL],IC50 [5] [µg/mL],IC50 [6] [µg/mL],IC50 [7] [µg/mL],IC50 [8] [µg/mL],IC50 [9] [µg/mL],IC50 [10] [µg/mL],IC50 [11] [µg/mL],IC50 [12] [µg/mL],IC50 [13] [µg/mL],IC50 [14] [µg/mL],IC50 [15] [µg/mL],IC50 [16] [µg/mL],IC50 [17] [µg/mL],IC50 [18] [µg/mL],IC50 [19] [µg/mL],IC50 [20] [µg/mL],further results
"N#Cc1cnc2ccc([N+](=O)[O-])cc2c1Nc1cccc(Br)c1 [Example 13, 4-[(3-Bromophenyl)amino]-6-nitro-3-quinolinecarbonitrile]",50,97.1,9.94,57,7.8,100,45.8,> 100,31.5,100,94,> 100,> 100,65,98.8,47.7,> 100,> 100,> 100,91,IC50 [21]: > 100 µg/mL; IC50 [22]: 65.8 µg/mL; IC50 [23]: > 100 µg/mL; IC50 [24]: > 100 µg/mL; IC50 [25]: 70.2 µg/mL; IC50 [26]: > 100 µg/mL; IC50 [27]: 100 µg/mL; IC50 [28]: > 100 µM
"N#Cc1cnc2ccc(N)cc2c1Nc1cccc(Br)c1 [Example 14, 6-Amino-4-[(3-bromophenyl)amino]-3-quinolinecarbonitrile]",0.1,1.79,3.59,5.92,6.19,88.8,> 100,8.9,0.989,6.63,39.3,> 100,39.4,80.7,20.6,7.39,69.6,7.68,2.81,1.5,IC50 [21]: 8.28 µg/mL; IC50 [22]: 0.91 µg/mL; IC50 [23]: 41.2 µg/mL; IC50 [24]: 8.98 µg/mL; IC50 [25]: 4.04 µg/mL; IC50 [26]: 7.6 µg/mL; IC50 [27]: 43.6 µg/mL; IC50 [28]: > 100 µM
